Assay [1] concerns TBK1 + IKKε (phospho-IRF3 @ Ser 386, MDA-MB-468 cells). The assay can be described thus: TBK1 + IKKε cell assay: dose response inhibition of phospho-IRF3 @ Ser 386 in MDA-MB-468 cells. The following applies: Homo sapiens, poly(I:C) stimulation, nuclear phospho-IRF3, read-out: TBK1 + IKKε cell assay IC50. The assay is classed as cell-based.
Experimental: Day 1: MDA-MB-468 cells are detached using HyQ-Tase, counted and sown into a 384-well plate with TC surface and clear bottom in a density of 10,000 cells per well in a total volume of 35 μl of complete medium. Alternatively, the cells are sown directly from frozen glass vials.
Day 2: The cells are pre-treated with inhibitor compounds for 1 h prior to poly(I:C) stimulation. After incubation for 2 h with poly(I:C), the cells are fixed in (para)formaldehyde (PFA) and permeabilised using methanol (MeOH). The cells are then blocked and incubated with an anti-pIRF3 antibody at 4° C. overnight.
Day 3: The primary antibody is washed off, an AlexaFluor488-conjugated secondary antibody is added, the cells are contrast-stained with propidium iodide, followed by image acquisition on an IMX ultra-high content reader.
For a further assay, the target named is IKKε (Homo sapiens (Human), UniProt Q14164). The experiment in a line: IKKε kinase assay (384-well flashplate assay). The assay is classed as biochemical. The following applies: 1 nM IKKε, 10 μM ATP, 30° C., 2 hours; read-out: IKKε enzyme assay IC50. The protocol: Test for the Inhibition of IKKε
Sequence of IKKε (Q14164 whole entry): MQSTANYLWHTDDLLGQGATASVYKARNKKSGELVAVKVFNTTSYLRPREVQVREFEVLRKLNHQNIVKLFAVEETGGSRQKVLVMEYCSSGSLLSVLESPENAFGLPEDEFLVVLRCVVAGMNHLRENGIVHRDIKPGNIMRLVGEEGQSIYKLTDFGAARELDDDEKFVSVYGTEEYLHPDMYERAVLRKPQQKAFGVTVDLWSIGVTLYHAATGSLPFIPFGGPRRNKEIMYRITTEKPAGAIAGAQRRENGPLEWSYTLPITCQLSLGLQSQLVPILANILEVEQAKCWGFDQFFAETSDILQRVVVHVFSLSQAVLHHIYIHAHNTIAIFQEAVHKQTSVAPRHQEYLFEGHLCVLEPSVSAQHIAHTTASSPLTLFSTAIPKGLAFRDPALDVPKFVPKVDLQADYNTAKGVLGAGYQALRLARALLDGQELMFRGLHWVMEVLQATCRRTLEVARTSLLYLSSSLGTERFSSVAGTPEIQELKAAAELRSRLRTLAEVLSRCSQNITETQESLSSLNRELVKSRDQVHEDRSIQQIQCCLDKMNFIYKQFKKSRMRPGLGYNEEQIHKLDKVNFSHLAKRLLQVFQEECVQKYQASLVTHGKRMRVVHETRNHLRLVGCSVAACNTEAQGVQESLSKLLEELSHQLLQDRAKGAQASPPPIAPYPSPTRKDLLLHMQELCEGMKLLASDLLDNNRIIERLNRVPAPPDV
IKKε—Kinase Assay (IKKepsilon)
The kinase assay is performed as 384-well flashplate assay (for example for Topcount measurement).
1 nM IKKε, 800 nM biotinylated IκBα(19-42) peptide (Biotin-C6-C6-[…]) and 10 μM ATP (spiked with 0.3 μCi of ^33P-ATP/well) are incubated at 30° C. for 2 hours in a total volume of 50 μl (10 mM MOPS, 10 mM Mg acetate, 0.1 mM EGTA, 1 mM dithiothreitol, 0.02% of Brij35, 0.1% of BSA, 0.1% of BioStab, pH 7.5) with or without test compound. The reaction is stopped using 25 μl of 200 mM EDTA. After 30 min at room temperature, the liquid is removed, and each well is washed three times with 100 μl of 0.9% sodium chloride solution. Non-specific reaction is determined in the presence of 3 μM MSC2119074 (BX-795). The radioactivity is measured using a Topcount (PerkinElmer). The results (for example IC50 values) are calculated using program tools provided by the IT Department (for example AssayExplorer, Symyx).

Assay [2] concerns the target TANK binding kinase (TBK1) (Homo sapiens (Human), UniProt Q9UHD2). The assay can be described thus: TBK1 enzyme assay (384-well flashplate kinase assay). The following applies: 0.6 nM TBK1, 10 μM ATP, 30° C., 120 min. The assay is classed as biochemical.
Experimental: Test for the Inhibition of TBK1
0.6 nM TANK binding kinase (TBK1), 800 nM biotinylated MELK-derived peptide (Biotin-Ah-Ah-[sequence]) and 10 μM ATP (spiked with 0.25 μCi of ^33P-ATP/well) are incubated at 30° C. for 120 min in a total volume of 50 μl (10 mM MOPS, 10 mM Mg acetate, 0.1 mM EGTA, 1 mM DTT, 0.02% of Brij35, 0.1% of BSA, pH 7.5) with or without test compound. The reaction is stopped with 25 μl of 200 mM EDTA. After 30 min at room temperature, the liquid is removed, and each well is washed three times with 100 μl of 0.9% sodium chloride solution. Non-specific reaction is measured in the presence of 100 nM staurosporine. The radioactivity is measured in a Topcount (PerkinElmer).

Sequence of TANK binding kinase (TBK1) (Q9UHD2 whole entry): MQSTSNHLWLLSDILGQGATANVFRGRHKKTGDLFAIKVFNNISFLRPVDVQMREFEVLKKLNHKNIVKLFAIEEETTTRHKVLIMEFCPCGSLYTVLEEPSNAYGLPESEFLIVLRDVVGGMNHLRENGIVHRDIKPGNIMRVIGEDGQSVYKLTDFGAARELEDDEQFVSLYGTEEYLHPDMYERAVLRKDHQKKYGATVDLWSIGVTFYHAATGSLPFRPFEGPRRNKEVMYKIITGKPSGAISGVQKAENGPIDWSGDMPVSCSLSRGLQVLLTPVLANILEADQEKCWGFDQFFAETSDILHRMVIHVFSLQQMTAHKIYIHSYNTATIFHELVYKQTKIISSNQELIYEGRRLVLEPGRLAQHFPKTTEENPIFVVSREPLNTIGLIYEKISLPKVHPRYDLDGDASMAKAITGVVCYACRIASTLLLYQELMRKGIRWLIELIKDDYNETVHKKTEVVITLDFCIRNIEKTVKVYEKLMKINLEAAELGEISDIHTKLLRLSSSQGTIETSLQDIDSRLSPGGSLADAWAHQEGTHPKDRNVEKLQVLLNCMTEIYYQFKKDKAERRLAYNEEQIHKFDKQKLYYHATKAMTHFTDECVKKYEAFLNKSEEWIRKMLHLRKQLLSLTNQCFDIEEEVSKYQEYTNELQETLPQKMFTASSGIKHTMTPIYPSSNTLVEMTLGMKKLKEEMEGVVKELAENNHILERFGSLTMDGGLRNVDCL

The IC50 is the concentration that gives 50% inhibition. `N#Cc1cc(-c2ccnc(Nc3cnn(CCO)c3)n2)ccc1OC1CCOCC1` [Compound A75, 5-{2-[1-(2-hydroxyethyl)-1H-pyrazol-4-ylamino]pyrimidin-4-yl}-2-(tetrahydropyran-4-yloxy)benzonitrile]: the results for the half-inhibitory concentration (IC50) (in assay [1]; on IKKε; in assay [2]) were 500 nM, 4 nM and 3 nM, respectively.

Turning to `N#Cc1cc(-c2ccnc(Nc3cnn(CC4CC4C#N)c3)c2)ccc1OC1CCOCC1` (stereo not drawn) [Compound A24, 5-{2-[1-(2-Cyanocyclopropylmethyl)-1H-pyrazol-4-ylamino]pyridin-4-yl}-2-(tetrahydropyran-4-yloxy)benzonitrile], the half-inhibitory concentration (IC50) in assay [1] turned out to be 4800 nM; on IKKε, 89 nM; in assay [2] it was 110 nM.

As to `N#Cc1cc(-c2ccnc(Nc3ccc(CO)cn3)c2)ccc1OCC1CC1` [Compound A106, 2-cyclopropylmethoxy-5-[2-(5-hydroxymethylpyridin-2-ylamino)pyridin-4-yl]benzonitrile], the figures for the IC50 (in assay [1]; at IKKε; in assay [2]) were 4100 nM, 46 nM and 41 nM, respectively.

With `N#Cc1cc(-c2ccnc(Nc3ccc(N4CCOCC4)nn3)c2)ccc1OC1CCOCC1` [Compound A90, 5-[2-(6-morpholin-4-ylpyridazin-3-ylamino)pyridin-4-yl]-2-(tetrahydropyran-4-yloxy)benzonitrile], the IC50 in assay [1] is 1300 nM; on IKKε it was 98 nM; in assay [2], 88 nM.

For `N#Cc1cc(-c2ccnc(Nc3cnn([C@H]4CC[C@H](O)CC4)c3)n2)ccc1OC1CCOCC1` [Compound A101, 5-{2-[1-(4-hydroxycyclohexyl)-1H-pyrazol-4-ylamino]pyrimidin-4-yl}-2-(tetrahydropyran-4-yloxy)benzonitrile], the results for the IC50 (in assay [1]; at IKKε; in assay [2]) were 440 nM, 5 nM and 3 nM, respectively.

On to `CN1CCC(n2cc(Nc3cc(-c4ccc(OC5CCOCC5)c(C#N)c4)ccn3)cn2)CC1` [Compound A2, 5-{2-[1-(1-Methylpiperidin-4-yl)-1H-pyrazol-4-yl-amino]pyridin-4-yl}-2-(tetrahydropyran-4-yloxy)benzonitrile], for which the figures for the concentration for half-maximal inhibition (IC50) (in assay [1]; on IKKε; in assay [2]) were 960 nM, 20 nM and 83 nM, respectively.

As for `Cc1cc(Nc2cc(-c3ccc(OC4CCOCC4)c(C#N)c3)ccn2)no1` [Compound A4, 5-[2-(5-Methylisoxazol-3-ylamino)pyridin-4-yl]-2-(tetrahydropyran-4-yloxy)benzonitrile], the IC50 is 6600 nM in assay [1], 38 nM at IKKε and 34 nM in assay [2].

Regarding `Cn1ccc(Nc2cc(-c3ccc(OC4CCOCC4)c(C#N)c3)ccn2)n1` [Compound A5, 5-[2-(1-Methyl-1H-pyrazol-3-ylamino)pyridin-4-yl]-2-(tetrahydropyran-4-yloxy)benzonitrile], the IC50 in assay [1] is 2900 nM; at IKKε it was 110 nM; in assay [2], 97 nM.

Consider `N#Cc1cc(-c2ccnc(Nc3cnc(C4CCOCC4)cn3)c2)ccc1OC1CCOCC1` [Compound A98, 2-(tetrahydropyran-4-yloxy)-5-{2-[5-(tetrahydropyran-4-yl)pyrazin-2-yl-amino]pyridin-4-yl}benzonitrile], for which the 50% inhibitory concentration (IC50) in assay [1] amounted to 390 nM; at IKKε it was 8 nM; in assay [2], 5 nM.

In the case of `N#Cc1cc(-c2ccnc(Nc3cncc(C4CCNCC4)n3)c2)ccc1OC1CCOCC1` [Compound A96, 5-[2-(6-piperidin-4-ylpyrazin-2-ylamino)pyridin-4-yl]-2-(tetrahydropyran-4-yloxy)benzonitrile], the figures for the IC50 (in assay [1]; on IKKε; in assay [2]) were 5400 nM, 40 nM and 24 nM, respectively.

For `N#Cc1cc(-c2ccnc(Nc3cc(CN)ccn3)c2)ccc1OC1CCOCC1` [Compound A77, 5-[2-(4-aminomethyl-pyridin-2-ylamino)pyridin-4-yl]-2-(tetrahydropyran-4-yloxy)benzonitrile], the IC50 in assay [1] was found to be 1400 nM; at IKKε, 12 nM; in assay [2], 30 nM.

Consider `CN(C)Cc1ccnc(Nc2cc(-c3ccc(OC4CCOCC4)c(C#N)c3)ccn2)c1` [Compound A81, 5-[2-(4-dimethyl-aminomethylpyridin-2-ylamino)pyridin-4-yl]-2-(tetrahydropyran-4-yloxy)benzonitrile], for which the IC50 in assay [1] stood at 350 nM; on IKKε it was 10 nM; in assay [2], 14 nM.

As for `N#Cc1ccc(Nc2cc(-c3ccc(OC4CCOCC4)c(C#N)c3)ccn2)nc1` [Compound A11, 6-{4-[3-Cyano-4-(tetrahydropyran-4-yloxy)phenyl]pyridin-2-ylamino}nicotinonitrile], the values for the half-inhibitory concentration (IC50) (in assay [1]; at IKKε; in assay [2]) were 5200 nM, 240 nM and 250 nM, respectively.

For the compound `N#Cc1cc(-c2ccnc(Nc3cnn([C@H]4CC[C@@H](O)CC4)c3)n2)ccc1OC1CCOCC1` [Compound A73, 5-{2-[1-(4-hydroxycyclohexyl)-1H-pyrazol-4-ylamino]pyrimidin-4-yl}-2-(tetrahydropyran-4-yloxy)benzonitrile], the half-maximal inhibitory concentration (IC50) in assay [1] was 270 nM; at IKKε, 10 nM; in assay [2], 8 nM.

`N#Cc1cc(-c2ccnc(Nc3cnc(CO)cn3)c2)ccc1OC1CCOCC1` [Compound A99, 5-[2-(5-hydroxymethylpyrazin-2-ylamino)pyridin-4-yl]-2-(tetrahydropyran-4-yloxy)benzonitrile]: the IC50 amounted to 320 nM in assay [1], 8 nM at IKKε and 6 nM in assay [2].

Regarding `N#Cc1cc(-c2ccnc(Nc3cc(C4CC4)n[nH]3)c2)ccc1OC1CCOCC1` [Compound A12, 5-[2-(5-Cyclopropyl-2H-pyrazol-3-ylamino)pyridin-4-yl]-2-(tetrahydropyran-4-yloxy)benzonitrile], the IC50 in assay [1] worked out at 1300 nM; at IKKε, 25 nM; in assay [2] it was 30 nM.

As for `N#Cc1cc(-c2ccnc(Nc3ccc(N4CCOCC4)cn3)c2)ccc1OCC1CCC1` [Compound A113, 2-cyclobutylmethoxy-5-[2-(5-morpholin-4-ylpyridin-2-ylamino)pyridin-4-yl]benzonitrile], the IC50 in assay [1] stood at 2900 nM; at IKKε it was 120 nM; in assay [2], 54 nM.

As to `N#Cc1cc(-c2ccnc(Nc3cc(C4CCNCC4)ccn3)c2)ccc1OC1CCOCC1` [Compound A74, 5-[2-(1′,2′,3′,4′,5′,6′-hexahydro-[4,4′]bipyridinyl-2-ylamino)pyridin-4-yl]-2-(tetrahydropyran-4-yloxy)benzonitrile], the half-inhibitory concentration (IC50) in assay [1] came to 1600 nM; on IKKε it was 1 nM; in assay [2], 2 nM.

On to `N#Cc1cc(-c2ccnc(Nc3cnn([C@H]4CC[C@@H](O)CC4)c3)n2)ccc1OCC1CCC1` [Compound A97, 2-cyclobutylmethoxy-5-{2-[1-(4-hydroxycyclohexyl)-1H-pyrazol-4-ylamino]-pyrimidin-4-yl}benzonitrile], for which the half-maximal inhibitory concentration (IC50) was determined as 2100 nM in assay [1], 39 nM at IKKε and 11 nM in assay [2].

Regarding `N#Cc1cc(-c2ccnc(Nc3cnn(C4CCNC4)c3)c2)ccc1OC1CCOCC1` (stereo not drawn) [Compound A28, 5-[2-(1-Pyrrolidin-3-yl-1H-pyrazol-4-ylamino)pyridin-4-yl]-2-(tetrahydropyran-4-yloxy)benzonitrile], the results for the IC50 (in assay [1]; at IKKε; in assay [2]) were 23000 nM, 74 nM and 280 nM, respectively.
